Tested on: 485368-065-R4-J2-PDC spheroids with HUVEC/MSC, viability
Test: Anticancer human tumor 485368-065-R4-J2-PDC patient-derived pancreatic carcinoma cell line growth inhibition [CLK]
Conditions: for IC50: curve of first compound; for viability, T/C: stronger effect = lower value
Procedure, shortened: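 Multi-cell-type spheroids combined patient-derived tumor cells with HUVEC endothelial cells and human mesenchymal stem cells. Paired agents were dosed in half-log steps down from about clinical Cmax, or from 10 microM where Cmax was unknown.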
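Also: spheroids exposed to compounds for seven days.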
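For viability, T/C in this document: 100% = DMSO vehicle control wells.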

## CC(C)CC(NC(=O)C(Cc1ccccc1)NC(=O)c1cnccn1)B(O)O (centres undefined) + CN1CCN(c2cc(C(=O)Nc3cc4cc(-c5cnn(C)c5)ccc4cn3)ccn2)CC1
Second compound 0.0316 µM
  IC50: 6.99 nM
Second compound 0.1 µM
  IC50: 6.16 nM
Second compound 0.316 µM
  IC50: 2.36 nM
Second compound 1 µM
  IC50: < 0.949 nM
Second compound 3.16 µM
  IC50: < 0.949 nM
Second compound 10 µM
  IC50: < 0.949 nM
Second compound 0.0316 µM, first compound 0.000949 µM
  viability, T/C: 93.5%
Second compound 0.0316 µM, first compound 0.003 µM
  viability, T/C: 118%
Second compound 0.0316 µM, first compound 0.00949 µM
  viability, T/C: 29.8%
Second compound 0.0316 µM, first compound 0.03 µM
  viability, T/C: 14.3%
Second compound 0.0316 µM, first compound 0.0949 µM
  viability, T/C: 8.25%
Second compound 0.0316 µM, first compound 0.3 µM
  viability, T/C: 4.1%
Second compound 0.1 µM, first compound 0.000949 µM
  viability, T/C: 102%
Second compound 0.1 µM, first compound 0.003 µM
  viability, T/C: 92.2%
Second compound 0.1 µM, first compound 0.00949 µM
  viability, T/C: 24.4%
Second compound 0.1 µM, first compound 0.03 µM
  viability, T/C: 14.3%
Second compound 0.1 µM, first compound 0.0949 µM
  viability, T/C: 7.86%
Second compound 0.1 µM, first compound 0.3 µM
  viability, T/C: 3.66%
Second compound 0.316 µM, first compound 0.000949 µM
  viability, T/C: 89.5%
Second compound 0.316 µM, first compound 0.003 µM
  viability, T/C: 39.8%
Second compound 0.316 µM, first compound 0.00949 µM
  viability, T/C: 14.8%
Second compound 0.316 µM, first compound 0.03 µM
  viability, T/C: 8.49%
Second compound 0.316 µM, first compound 0.0949 µM
  viability, T/C: 4.29%
Second compound 0.316 µM, first compound 0.3 µM
  viability, T/C: 2.89%
Second compound 1 µM, first compound 0.000949 µM
  viability, T/C: 1%
Second compound 1 µM, first compound 0.003 µM
  viability, T/C: 3.72%
Second compound 1 µM, first compound 0.00949 µM
  viability, T/C: 2.87%
Second compound 1 µM, first compound 0.03 µM
  viability, T/C: 1.87%
Second compound 1 µM, first compound 0.0949 µM
  viability, T/C: 3.57%
Second compound 1 µM, first compound 0.3 µM
  viability, T/C: 3.73%
Second compound 3.16 µM, first compound 0.000949 µM
  viability, T/C: 1.35%
Second compound 3.16 µM, first compound 0.003 µM
  viability, T/C: 4.02%
Second compound 3.16 µM, first compound 0.00949 µM
  viability, T/C: 3%
Second compound 3.16 µM, first compound 0.03 µM
  viability, T/C: 3.03%
Second compound 3.16 µM, first compound 0.0949 µM
  viability, T/C: 3.95%
Second compound 3.16 µM, first compound 0.3 µM
  viability, T/C: 4.37%
Second compound 10 µM, first compound 0.000949 µM
  viability, T/C: 1.26%
Second compound 10 µM, first compound 0.003 µM
  viability, T/C: 3.6%
Second compound 10 µM, first compound 0.00949 µM
  viability, T/C: 2.94%
Second compound 10 µM, first compound 0.03 µM
  viability, T/C: 1.87%
Second compound 10 µM, first compound 0.0949 µM
  viability, T/C: 2.33%
Second compound 10 µM, first compound 0.3 µM
  viability, T/C: 1.8%

## O=C(c1cc(Cc2n[nH]c(=O)c3ccccc23)ccc1F)N1CCN(C(=O)C2CC2)CC1 + CN1CCN(c2cc(C(=O)Nc3cc4cc(-c5cnn(C)c5)ccc4cn3)ccn2)CC1
Second compound 0.0316 µM
  IC50: > 10000 nM
Second compound 0.1 µM
  IC50: > 10000 nM
Second compound 0.316 µM
  IC50: 8880 nM
Second compound 1 µM
  IC50: < 31.6 nM
Second compound 3.16 µM
  IC50: < 31.6 nM
Second compound 10 µM
  IC50: < 31.6 nM
Second compound 0.0316 µM, first compound 0.0316 µM
  viability, T/C: 92.6%
Second compound 0.0316 µM, first compound 0.1 µM
  viability, T/C: 111%
Second compound 0.0316 µM, first compound 0.316 µM
  viability, T/C: 106%
Second compound 0.0316 µM, first compound 1 µM
  viability, T/C: 110%
Second compound 0.0316 µM, first compound 3.16 µM
  viability, T/C: 105%
Second compound 0.0316 µM, first compound 10 µM
  viability, T/C: 82.6%
Second compound 0.1 µM, first compound 0.0316 µM
  viability, T/C: 107%
Second compound 0.1 µM, first compound 0.1 µM
  viability, T/C: 105%
Second compound 0.1 µM, first compound 0.316 µM
  viability, T/C: 105%
Second compound 0.1 µM, first compound 1 µM
  viability, T/C: 103%
Second compound 0.1 µM, first compound 3.16 µM
  viability, T/C: 105%
Second compound 0.1 µM, first compound 10 µM
  viability, T/C: 76%
Second compound 0.316 µM, first compound 0.0316 µM
  viability, T/C: 79%
Second compound 0.316 µM, first compound 0.1 µM
  viability, T/C: 79.9%
Second compound 0.316 µM, first compound 0.316 µM
  viability, T/C: 79.7%
Second compound 0.316 µM, first compound 1 µM
  viability, T/C: 81.1%
Second compound 0.316 µM, first compound 3.16 µM
  viability, T/C: 70.5%
Second compound 0.316 µM, first compound 10 µM
  viability, T/C: 47.5%
Second compound 1 µM, first compound 0.0316 µM
  viability, T/C: 1.08%
Second compound 1 µM, first compound 0.1 µM
  viability, T/C: 1.02%
Second compound 1 µM, first compound 0.316 µM
  viability, T/C: 1.67%
Second compound 1 µM, first compound 1 µM
  viability, T/C: 2.06%
Second compound 1 µM, first compound 3.16 µM
  viability, T/C: 2.06%
Second compound 1 µM, first compound 10 µM
  viability, T/C: 2.39%
Second compound 3.16 µM, first compound 0.0316 µM
  viability, T/C: 1.23%
Second compound 3.16 µM, first compound 0.1 µM
  viability, T/C: 1.3%
Second compound 3.16 µM, first compound 0.316 µM
  viability, T/C: 1.64%
Second compound 3.16 µM, first compound 1 µM
  viability, T/C: 2.47%
Second compound 3.16 µM, first compound 3.16 µM
  viability, T/C: 1.39%
Second compound 3.16 µM, first compound 10 µM
  viability, T/C: 3.02%
Second compound 10 µM, first compound 0.0316 µM
  viability, T/C: 1.53%
Second compound 10 µM, first compound 0.1 µM
  viability, T/C: 1.87%
Second compound 10 µM, first compound 0.316 µM
  viability, T/C: 2.81%
Second compound 10 µM, first compound 1 µM
  viability, T/C: 2.7%
Second compound 10 µM, first compound 3.16 µM
  viability, T/C: 2.29%
Second compound 10 µM, first compound 10 µM
  viability, T/C: 1.73%

— PubChem BioAssay AID2060617 (Molecular Pharmacology Branch, DTP, NCI, 2025)
